Four compounds from patent US20250281492A1, “NEW CRYSTALLINE FORMS OF SALT OF 7-CYCLOPENTYL-2-(5-PIPERAZIN-1-YL-PYRIDIN-2-YLAMINO)-7H-PYRROLO[2,3-D]PYRIMIDINE -6-CARBOXYLIC ACID DIMETHYLAMIDE” (priority 2019, published 2025) can be followed below.

What all share (type): physicochemical
A short description of series [1]: DVS (dynamic vapor sorption) sorption/desorption isotherms. The following applies: for Desorption / Sorption: DVS, 25 degrees Celsius; for XRPD after DVS: after DVS cycle at 25 degrees Celsius; for hygroscopicity classification: from DVS data at 25° C. From the text: Anhydrous modifications A and E of ribociclib succinate were submitted to DVS analysis. The results are reported in FIGS. 14 and 15 and in Table 12.

The nature of series [2]: Hydrate formation: exposure at ambient temperature at various relative humidity in a desiccator.
Excerpt: Aliquots from ribociclib succinate Modification A were exposed in a desiccator with saturated solution of inorganic salt or drying agent to provide a range of various relative humidities.
A short description of series [3]: Long term stability studies, exposure to high relative humidity. The following applies: 75% RH at 40 or 50° C., less protective packaging material.
Another series in a line: Thermogravimetry.
Series [4] can be described thus: Conversion to dihydrate Modification HB (water activity, suspension equilibration).
[5] abbreviates: relative humidity 10%, succinate.
The mark [6] stands for this setting: relative humidity 20%, succinate.
[7] abbreviates: relative humidity 30%, succinate.
The mark [8] stands for this setting: relative humidity 40%, succinate.
Where [9] appears, read: relative humidity 50%, succinate.
Setting [10] is: relative humidity 60%, succinate.
[11] abbreviates: relative humidity 70%, succinate.
The mark [12] stands for this setting: relative humidity 80%, succinate.
[13] abbreviates: relative humidity 90%, succinate.
Setting [14] is: relative humidity 95%, succinate.
Where [15] appears, read: heating rate 10 degrees Celsius per minute.

Some results are limits rather than exact numbers.

For `CN(C)C(=O)c1cc2cnc(Nc3ccc(N4CCNCC4)cn3)nc2n1C1CCCC1.O=C(O)CCC(=O)O` [Modification A, 7-Cyclopentyl-2-(5-piperazin-1-yl-pyridin-2-ylamino)-7H-pyrrolo[2,3-d]pyrimidine-6-carboxylic acid dimethylamide succinate, reference compound], the Desorption in series [1] (relative humidity 0%) stood at 0.0 wt %; in series [1] (setting [5]), 0.1 wt %; in series [1] (relative humidity 20%), 0.1 wt %; in series [1] (relative humidity 30%), 0.1 wt %; in series [1] (relative humidity 40%), 0.1 wt %. The Sorption in series [1] (relative humidity 0%) was found to be 0.0 wt %; in series [1] (setting [5]) it was 0.1 wt %; in series [1] (setting [6]), 0.1 wt %; in series [1] (setting [7]), 0.2 wt %; in series [1] (setting [8]), 0.2 wt %; in series [1] (setting [9]), 0.2 wt %. Also, the Sorption turned out to be 0.2 wt % in series [1] (setting [10]); 0.3 wt % in series [1] (setting [11]); 0.3 wt % in series [1] (setting [12]); 0.5 wt % in series [1] (setting [13]); 0.7 wt % in series [1] (setting [14]). Also, the “XRPD after DVS” value in series [1] is “No change”. The “maximum mass change compared to the dry state” value in series [1] (exposed to 92% HR., 25° C.) is on record as “about 0.7%”. Besides, the “water uptake in comparison to the dry state (0% RH)” value in series [1] (exposed to 95% RH in DVS cycle at 25° C.) is on record as “about 0.7%”. Besides, in series [1] (succinate), the hygroscopicity classification entry is on record as “slightly hygroscopic”. For the same compound, the “loss on drying by thermogravimetry” value in series [2] (after 10 days at 92% RH, ambient temperature) was 3.9%; in series [2] (starting material before exposure), “lower than 0.05%”. Moreover, the “physical stability (XRPD)” value in series [2] (exposed to 92% RH at ambient temperature for 1 day, peaks assigned to Modification HA) is “some additional peaks at about 4.7, 6.4, 12.0 and 13.0 degree 2θ can be detected”; in series [2] (exposed up to 80% RH at ambient temperature for 1 day), “physically stable”; in series [3], “physically unstable”. The “conversion (XRPD)” value in series [2] (exposed to 92% RH at ambient temperature for 10 days) was “complete conversion”. For the same compound, the “behaviour at high relative humidity” value in series [2] (sufficient amount of time at relative humidity close or higher than 92%) was “starts to deliquesce”. Besides, the loss on drying result in “Thermogravimetry” (from 30 to 180° C.) is “less than 0.05%”. The decomposition temperature entry in the series “Thermogravimetry” (setting [15]) is “about 200 °C”. Besides, the “water activity for conversion into dihydrate Modification HB” value in series [4] (conversion observed in bulk at 40° C./75% RH) is listed as “higher than 70 % relative humidity (RH)”.
Take `CN(C)C(=O)c1cc2cnc(Nc3ccc(N4CCNCC4)cn3)nc2n1C1CCCC1.O=C(O)CCC(=O)O` [Modification E, 7-Cyclopentyl-2-(5-piperazin-1-yl-pyridin-2-ylamino)-7H-pyrrolo[2,3-d]pyrimidine-6-carboxylic acid dimethylamide succinate]: in series [1] (DVS cycle at 25° C.), the “max water uptake (mass change)” value is on record as 0.1%. Besides, the Desorption in series [1] (relative humidity 0%) was found to be 0.0 wt %; in series [1] (setting [5]), 0.0 wt %; in series [1] (relative humidity 20%) it was 0.1 wt %; in series [1] (relative humidity 30%), 0.1 wt %; in series [1] (relative humidity 40%), 0.1 wt %. Also, the Sorption in series [1] (relative humidity 0%) was 0.0 wt %; in series [1] (setting [5]), 0.0 wt %; in series [1] (setting [6]) it was 0.0 wt %; in series [1] (setting [7]), 0.1 wt %; in series [1] (setting [8]) it was 0.1 wt %; in series [1] (setting [9]), 0.1 wt %. Further, the Sorption in series [1] (setting [10]), in series [1] (setting [11]), in series [1] (setting [12]), in series [1] (setting [13]) and in series [1] (setting [14]) was 0.1 wt % in each case. In series [1], the “XRPD after DVS” value is recorded as “No change”. For the same compound, the hygroscopicity classification entry in series [1] (succinate) was “not hygroscopic”. In “Thermogravimetry” (from 30 to 180° C.), the loss on drying result is on record as “less than 0.05%”. The decomposition temperature entry in the series “Thermogravimetry” (setting [15]) is “about 200 °C”. In addition, the “water activity (aH2O) at which Modification HB is obtained” value in series [4] (suspension equilibration at 25° C.) is on record as at least 0.68.
On to `CN(C)C(=O)c1cc2cnc(Nc3ccc(N4CCNCC4)cn3)nc2n1C1CCCC1` [Modification F], for which, in “Thermogravimetry” (from 30 to 140° C.), the loss on drying entry is “less than 0.0%”.
As to `CN(C)C(=O)c1cc2cnc(Nc3ccc(N4CCNCC4)cn3)nc2n1C1CCCC1.O.O.O=C(O)CCC(=O)O` [Modification HB], the Desorption in series [1] (relative humidity 0%) was 0.0 wt %; in series [1] (relative humidity 10%) it was 1.2 wt %; in series [1] (relative humidity 20%) it was 1.7 wt %; in series [1] (relative humidity 30%), 1.9 wt %; in series [1] (relative humidity 40%), 2.0 wt %. Further, the Sorption in series [1] (relative humidity 0%) is on record as 0.0 wt %; in series [1] (relative humidity 10%) it was 0.8 wt %; in series [1] (relative humidity 20%) it was 1.3 wt %; in series [1] (relative humidity 30%), 1.7 wt %; in series [1] (relative humidity 40%), 1.9 wt %; in series [1] (relative humidity 50%), 2.1 wt %. For the same compound, the Sorption in series [1] (relative humidity 60%) was found to be 2.2 wt %; in series [1] (relative humidity 70%) it was 2.3 wt %; in series [1] (relative humidity 80%) it was 2.4 wt %; in series [1] (relative humidity 90%), 2.5 wt %; in series [1] (relative humidity 95%), 2.5 wt %. In addition, the “XRPD after DVS” value in series [1] was “No change”. In “Thermogravimetry” (at about 120° C.), the “mass loss on loss of water” value was “about 5.8%”. In addition, in the series “Thermogravimetry” (setting [15]), the decomposition temperature entry was “about 200 °C”. In addition, in “Thermogravimetry” (setting [15]), the “temperature of loss of water” value was “about 120 °C”.
